Laboratory results published in patent US8906953B2, “Pyrrolidine substitute flavones for the treatment of inflammatory disorders” (Piramal Enterprises Limited, priority 2010, dated 2014).
Where a name gives a salt, the structure may show the parent alone.

Assays:
TNF-α = assay: LPS-induced TNF-α release from hPBMCs (ELISA); type: cell-based; details: Homo sapiens; LPS-stimulated hPBMCs, 5 hours; read-out: Activity (TNF-α) IC50
Experimental: Cytokine production by lipopolysaccharides (LPS) in hPBMCs (human peripheral blood mononuclear cells) was measured as in reference, Physiol. Res. 2003, 52, 593-598, the disclosure of which is incorporated by reference for the teaching of the assay. Blood was collected from healthy donors into Potassium EDTA vacutainer tubes (BID vacutainer). The PBMC were isolated using gradient centrifugation in Histopaque-1077 solution (Sigma). Isolated PBMC were suspended in RPMI 1640 (Rosewell Park Memorial Institute) culture medium (Sigma-Aldrich Fine Chemicals, USA) containing 10% fetal bovine serum (FBS) (JRH, USA), 100 U/mL penicillin (Sigma Chemical Co. St Louis, Mo., USA) and 100 μg/mL streptomycin (Sigma Chemical Co. St Louis, Mo.). The cell concentration was adjusted to 1×10^6 cells/mL. The viability as determined by trypan blue dye exclusion was uniform Ly≧98%. The cell suspension (100 μL) was added to the wells of a 96-well culture plate. Following cell plating, 79 μL of the culture medium and 1 μL of various concentrations of test compounds (compounds of formula 1) (final concentration 0.001, 0.003, 0.005, 0.01, 0.025, 0.03, 0.05, 0.1, 0.25, 0.3 and 1 μM) dissolved in DMSO (dimethyl sulfoxide, Sigma, Mo., USA) were added to the cells. The final concentration of DMSO was adjusted to 0.5%. The vehicle (0.5% DMSO) was used as control. […] The plates were incubated for 30 minutes at 37° C. in an atmosphere of 5% CO2. Finally, 20 μL (10 μg/mL) per well of LPS, (Escherchia coli 0127:B8, Sigma Chemical Co., St. Louis, Mo.) was added to the wells of the incubated plates, for a final concentration of 1 μg/mL. The plates were incubated at 37° C. for 5 hours in an atmosphere of 5% CO2. […] Supernatants were harvested and assayed for TNF-α, IL-1β, IL-6 and IL-8 by ELISA as described by the manufacturer. (OptiEIA ELISA sets, BD Biosciences, Pharmingen). The 50% inhibitory concentration (IC50) values were calculated by a nonlinear regression method using GraphPad software (Prism 3.03).

PDE4 = PDE4 inhibition, cAMP fluorescence assay in salbutamol-stimulated U937 cells; type: cell-based, human; details: U937 cells, salbutamol 1 μM
Experimental: Culture medium was changed every 2-3 days and always 24 hours before harvest. RPMI medium, FBS and Salbutamol were purchased from Sigma-Aldrich (USA). Rolipram was synthesized in the Medicinal Chemistry Department, Piramal Life Sciences Limited.
Rolipram was used as a standard (0.3, 1 and 3 μM). […] Fluorescence measurements were taken with Polarstar Optima (BMG Labtech-Germany).
Relative fluorescence was calculated using the following formula where: RF=Relative Fluorescence, Fo=fluorescent intensity of the blank or buffer control, F=fluorescence of cAMP or sample: RF=(Fo−F)/Fo
A standard curve was plotted using the RF values of the given standards and the values of cAMP corresponding to the test compounds were determined using the standard plot.

[1] = tested on: arthritic (CIA) DBA/1J mice; assay: Collagen induced arthritis in mouse; type: in vivo; details: Enbrel 3 mg/kg s.c. once daily, 23 days
Experimental: The assay was designed as in reference, J. Exp. Med., 1985, 162, 637-646, the disclosure of which is incorporated herein by reference for the teaching of the assay.
Male DBA/1J mice (originally procured from Jackson Laboratories, USA), aged 8-10 weeks were immunized with an emulsion equivalent to 200 μg of type II collagen in Freund's Complete Adjuvant, injected intradermally at the base of the tail. A booster shot with the same emulsion was given 21 days later. A group of naïve mice was maintained alongside.
From day 23 to day 56, mice were examined daily once for the signs of rheumatoid arthritis, using the Articular Index and paw thickness as parameters. Articular Index scoring was performed employing the following criteria:
Mice with a minimum hind paw score of 2 were inducted into the study.
Mice were randomized into the various study groups and orally administered the vehicle (0.5% CMC, 1 ml/kg), test compound (compound of example 3, 50 mg/kg twice daily) and standard compound (Enbrel, 3 mg/kg, s.c., once daily). […] The dosing of the compounds was done for 23 days.
The following parameters were observed and recorded daily, • 1. Body weight • 2. Articular index • 3. Paw thickness in mm using a tension free caliper • 4. Any significant observation regarding the condition of the animal. […]
The results are graphically depicted in FIG. 3 (Articular index versus days of treatment) and FIG. 4 (Paw thickness versus days of treatment). Data obtained during the course of this study (articular index and paw thickness) was statistically evaluated by applying Mann-Whitney U test.
Mice were humanely euthanized and the hind paws were harvested from each animal, fixed in 10% neutral buffered formalin, decalcified in 5% formic acid and embedded in paraffin. Section […] were stained with either hematoxylin and eosin or safranin 0 and evaluated microscopically. Histopathological changes were scored as follows: mild (score=1), moderate (score=2) or severe (score=3) for the parameters of cellular infiltration, bone erosions and cartilage damage, graded separately. […]

For `CN1CC[C@@H](c2c(O)cc(O)c3c(=O)cc(-c4ccc([N+](=O)[O-])cc4Cl)oc23)[C@@H]1CO` [Compound of example 5, (+)-trans-2-(2-Chloro-4-nitro-phenyl)-5,7-dihydroxy-8-(2-hydroxymethyl-1-methyl-pyrrolidin-3-yl)-chromen-4-one hydrochloride], the IC50 (TNF-α) was 0.4 µM.

With `CN1CC[C@@H](c2c(O)cc(O)c3c(=O)cc(-c4ccccc4Cl)oc23)[C@@H]1CO` [Compound of example 7, (+)-trans-2-(2-Chloro-phenyl)-5,7-dihydroxy-8-(2-hydroxymethyl-1-methyl-pyrrolidin-3-yl)-chromen-4-one hydrochloride] the IC50 (TNF-α) was 0.2 µM.

Work on `CN1CC[C@@H](c2c(O)cc(O)c3c(=O)cc(-c4cc(F)ccc4Br)oc23)[C@@H]1CO` [Compound of example 9, (+)-trans-2-(2-Bromo-5-fluoro-phenyl)-5,7-dihydroxy-8-(2-hydroxymethyl-1-methyl-pyrrolidin-3-yl)-chromen-4-one hydrochloride] yielded an IC50 (TNF-α) of 0.9 µM.

`CN1CC[C@@H](c2c(O)cc(O)c3c(=O)cc(-c4ccc(C#N)cc4Cl)oc23)[C@@H]1CO` [Compound of example 12, (+)-trans-2-(2-Chloro-4-cyano-phenyl)-5,7-dihydroxy-8-(2-hydroxymethyl-1-methyl-pyrrolidin-3-yl)-chromen-4-one hydrochloride] gave an IC50 (TNF-α) of 1.5 µM.

`CN1CC[C@@H](c2c(O)cc(O)c3c(=O)cc(-c4ccc([N+](=O)[O-])cc4Br)oc23)[C@@H]1CO` [Compound of example 16, (+)-trans-2-(2-Bromo-4-nitro-phenyl)-5,7-dihydroxy-8-(2-hydroxymethyl-1-methyl-pyrrolidin-3-yl)-chromen-4-one hydrochloride] gave an IC50 (TNF-α) of 0.3 µM.

With `CN1CC[C@@H](c2c(O)cc(O)c3c(=O)cc(-c4ccc(Cl)cc4Cl)oc23)[C@@H]1CO` [Compound of example 18, (+)-trans-2-(2,4-Dichloro-phenyl)-5,7-dihydroxy-8-(2-hydroxymethyl-1-methyl-pyrrolidin-3-yl)-chromen-4-one hydrochloride] the IC50 (TNF-α) was 0.3 µM.

`CN1CC[C@@H](c2c(O)cc(O)c3c(=O)cc(-c4cc(F)ccc4Cl)oc23)[C@@H]1CO` [Compound of example 20, (+)-trans-2-(2-Chloro-5-fluoro-phenyl)-5,7-dihydroxy-8-(2-hydroxymethyl-1-methyl-pyrrolidin-3-yl)-chromen-4-one hydrochloride] showed an IC50 (TNF-α) of 0.7 µM.

`CN1CC[C@@H](c2c(O)cc(O)c3c(=O)cc(-c4cccs4)oc23)[C@@H]1CO` [Compound of example 22, (+)-trans-5,7-Dihydroxy-8-(2-hydroxymethyl-1-methyl-pyrrolidin-3-yl)-2-thiophen-2-yl-chromen-4-one hydrochloride] showed an IC50 (TNF-α) of 2.3 µM.

`CN1CC[C@@H](c2c(O)cc(O)c3c(=O)cc(-c4cccc([N+](=O)[O-])c4)oc23)[C@@H]1CO` [Compound of example 26, (+)-trans-5,7-dihydroxy-8-(2-hydroxymethyl-1-methyl-pyrrolidin-3-yl)-2-(3-nitrophenyl)-chromen-4-one hydrochloride] showed an IC50 (TNF-α) of 0.4 µM.

With `CN1CC[C@@H](c2c(O)cc(O)c3c(=O)cc(-c4cccc(Br)c4Cl)oc23)[C@@H]1CO` [Compound of example 30, (+)-trans-2-(3-Bromo-2-chloro-phenyl)-5,7-dihydroxy-8-(2-hydroxymethyl-1-methyl-pyrrolidin-3-yl)-chromen-4-one hydrochloride] the IC50 (TNF-α) was 4.1 µM.

`CN1CC[C@@H](c2c(O)cc(O)c3c(=O)cc(-c4cccc(Cl)c4)oc23)[C@@H]1CO` [Compound of example 34, (+)-trans-2-(3-Chloro-phenyl)-5,7-dihydroxy-8-(2-hydroxymethyl-1-methyl-pyrrolidin-3-yl)-chromen-4-one hydrochloride] gave an IC50 (TNF-α) of 2.5 µM.

`CN1CC[C@@H](c2c(O)cc(O)c3c(=O)cc(-c4cccc([N+](=O)[O-])c4Cl)oc23)[C@@H]1CO` [Compound of example 38, (+)-trans-2-(2-Chloro-3-nitro-phenyl)-5,7-dihydroxy-8-(2-hydroxymethyl-1-methyl-pyrrolidin-3-yl)-chromen-4-one hydrochloride] gave an IC50 (TNF-α) of 1.3 µM.

`CN1CC[C@@H](c2c(O)cc(O)c3c(=O)cc(-c4cccc(C(F)(F)F)c4Cl)oc23)[C@@H]1CO` [Compound of example 42, (+)-trans-2-(2-Chloro-3-trifluoromethyl-phenyl)-5,7-dihydroxy-8-(2-hydroxymethyl-1-methyl-pyrrolidin-3-yl)-chromen-4-one hydrochloride] gave an IC50 (TNF-α) of 2.4 µM.

With `Cc1cccc(-c2cc(=O)c3c(O)cc(O)c([C@@H]4CCN(C)[C@H]4CO)c3o2)c1Cl` [Compound of example 46, (+)-trans-2-(2-Chloro-3-methyl-phenyl)-5,7-dihydroxy-8-(2-hydroxymethyl-1-methyl-pyrrolidin-3-yl)-chromen-4-one hydrochloride] the IC50 (TNF-α) was 0.5 µM.

`CN1CC[C@@H](c2c(O)cc(O)c3c(=O)cc(-c4cccc(Cl)c4Cl)oc23)[C@@H]1CO` [Compound of example 58, (+)-trans-2-(2,3-Dichloro-phenyl)-5,7-dihydroxy-8-(2-hydroxymethyl-1-methyl-pyrrolidin-3-yl)-chromen-4-one hydrochloride] gave an IC50 (TNF-α) of 1.5 µM.

`CN1CC[C@@H](c2c(O)cc(O)c3c(=O)cc(-c4cccc(I)c4Cl)oc23)[C@@H]1CO` [Compound of example 62, (+)-trans-2-(2-Chloro-3-iodo-phenyl)-5,7-dihydroxy-8-(2-hydroxymethyl-1-methyl-pyrrolidin-3-yl)-chromen-4-one hydrochloride] gave an IC50 (TNF-α) of 1.3 µM.

Work on `CC(C)Nc1cccc(-c2cc(=O)c3c(O)cc(O)c([C@@H]4CCN(C)[C@H]4CO)c3o2)c1Cl` [Compound of example 66, (+)-trans-2-(2-Chloro-3-isopropylamino-phenyl)-5,7-dihydroxy-8-(2-hydroxymethyl-1-methyl-pyrrolidin-3-yl)-chromen-4-one hydrochloride] yielded an IC50 (TNF-α) of 0.9 µM.

For `COc1ccc(C2CNC(=O)C2)cc1OC1CCCC1` (stereo not drawn) [Rolipram, reference compound], the “Relative Fluorescence (RF)” value (PDE4; concentration 0.3 μM) was 1.39, the “Relative Fluorescence (RF)” value (PDE4; concentration 1 μM) was 1.56 and the “Relative Fluorescence (RF)” value (PDE4; concentration 3 μM) was 1.73.

In the case of Enbrel, the “Severity of disease by articular index and paw thickness” value [1] is reported as “significant reduction in the severity of the disease”.
